Columns and labels:
HCV replicon = HCV replicon assay (FRET or luciferase reporter); assay type: cell-based; conditions: Hepatitis C virus, one of the methods described
Excerpt: To perform the HCV FRET screening assay, 96-well cell culture plates were used, The FRET peptide (Anaspec, Inc.) (Taliani et al., Anal. Biochem., 240:60-67 (1996)) contains a fluorescence donor, EDANS, near one end of the peptide and an acceptor, DABCYL, near the other end. The fluorescence of the peptide is quenched by […] resonance energy transfer (RET) between the donor and the acceptor, but as the NS3 protease cleaves the peptide the products are released from RET quenching and the fluorescence of the donor becomes apparent. The assay reagent was made as follows: 5× cell Luciferase cell culture lysis reagent from Promega (#E153A) diluted to 1× with dH2O, NaCl added to 150 mM final, the FRET peptide diluted to 20 μM final from a 2 mM stock.
To prepare plates, HCV replicon cells, with or without a Renilla luciferase reporter gene, were trypsinized and placed into each well of a 96-well plate with titrated test compounds added in columns 3 through 12; columns 1 and 2 contained a control compound (HCV protease inhibitor), and the bottom row contained cells without compound. The plates were then placed in a CO2 incubator at 37° C.
Subsequent to addition of the test compounds described above (FRET Assay Preparation), at various times the plate was removed and Alamar blue solution (Trek Diagnostics, #00-100) was added per well as a measure of cellular toxicity. After reading in a CYTOFLUOR® 4000 instrument (PE Biosystems), plates were rinsed with PBS and then used for FRET assay by the addition of 30 ul of the FRET peptide assay reagent described above (FRET Assay Preparation) per well. The plate was then placed into the CYTOFLUOR® 4000 instrument which had been set to 340 excite/490 emission, automatic mode for 20 cycles and the plate read in a kinetic mode. Typically, the signal to noise using an endpoint analysis after the reads was at least three-fold. Alternatively, after Alamar blue reading, plates were rinsed with PBS, 50 ul of DMEM (high glucose) without phenol red was added and plates were then used for luciferase assay using the Promega DUAL-GLO® Luciferase Assay System.
Compound analysis was determined by quantification of the relative HCV replicon inhibition and the relative cytotoxicity values. To calculate cytoxicity values, the average Alamar Blue fluorescence signals from the control wells were set as 100% non-toxic. The individual signals in each of the compound test wells were then divided by the average control signal and multiplied by 100% to determine […]. To calculate the HCV replicon inhibition values, an average background value was obtained from the two wells containing the highest amount of HCV protease inhibitor at the end of the assay period. These numbers were similar to those obtained from naïve Huh-7 cells.
The background numbers were then subtracted from the average signal obtained from the control wells and this number was used as 100% activity. The individual signals in each of the compound test wells were then divided by the averaged control values after background subtraction and multiplied by 100% to determine percent activity. EC50 values for a protease inhibitor titration were calculated as the concentration which caused a 50% reduction in FRET or luciferase activity. The two numbers generated for the compound plate, percent cytoxicity and percent activity were used to determine compounds of interest for further analysis.
The HCV replicon luciferase assay was developed to monitor the inhibitory effects of compounds described in the disclosure on HCV viral replication. Utilization of a replicon luciferase reporter assay was first described by Krieger et al (Krieger, N. et al., J. Virology, 75(10):4614-4624 (2001)). HUH-7 cells, constitutively expressing the HCV replicon, were grown in Dulbecco's Modified Eagle Media (DMEM) (Gibco-BRL) containing 10% Fetal calf serum (FCS) (Sigma) and 1 mg/ml G418 (Gibco-BRL). […]

HCV NS5B = target: T1, HCV NS5B (Hepatitis C virus genotype 1b, UniProt Q9WMX2); test: Modified HCV NS5B RdRp enzyme assay (preincubation protocol); assay type: biochemical
T1 construct: The protein was expressed with an 18 amino acid C-terminal truncation to enhance the solubility; made in house; host or cells: E. coli BL21(DE3)
Description: The cDNA encoding the NS5B protein of HCV, genotype 1b, was cloned into the pET21a expression vector. The protein was expressed with an 18 amino acid C-terminal truncation to enhance the solubility. The E. coli competent cell line BL21(DE3) was used for expression of the protein. Cultures were grown at 37° C. for ˜4 hours until the cultures reached an optical density of 2.0 at 600 nm. The cultures were cooled to 20° C. and induced with 1 mM IPTG. Fresh ampicillin was added to a final concentration of 50 μg/ml and the cells were grown overnight at 20° C.
Cell pellets (3 L) were lysed for purification to yield 15-24 mgs of purified NS5B. The lysis buffer consisted of 20 mM Tris-HCl, pH 7.4, 500 mM NaCl, 0.5% triton X-100, 1 mM DTT, 1 mM EDTA, 20% glycerol, 0.5 mg/ml lysozyme, 10 mM MgCl2, 15 ug/ml deoxyribonuclease I, and Complete TM protease inhibitor tablets (Roche). After addition of the lysis buffer, frozen cell pellets were resuspended using a tissue homogenizer. To reduce the viscosity of the sample, aliquots of the lysate were sonicated on ice using a microtip attached to a Branson sonicator. The sonicated lysate was centrifuged at 100,000×g for 1 hr at 4° C. and filtered through a 0.2 μm filter unit (Corning).
The protein was purified using three sequential chromatography steps: Heparin sepharose CL-6B, polyU sepharose 4B, and […] SP sepharose (Pharmacia). The chromatography buffers were identical to the lysis buffer but contained no lysozyme, deoxyribonuclease I, MgCl2 or protease inhibitor and the NaCl concentration of the buffer was adjusted according to the requirements for charging the protein onto the column. Each column was eluted with a NaCl gradient which varied in length from 5-50 column volumes depending on the column type. After the final chromatography step, the resulting purity of the enzyme is >90% based on SDS-PAGE analysis. The enzyme was aliquoted and stored at −80° C.
HCV RdRp genotype 1b assays were run in a final volume of 60 μl in 96 well plates (Costar 3912). The assay buffer is composed of 20 mM Hepes, pH 7.5, 2.5 mM KCl, 2.5 mM MgCl2, 1 mM DTT, 1.6 U RNAse inhibitor (Promega N2515), 0.1 mg/ml BSA (Promega R3961), and 2% glycerol. All compounds were serially diluted (3-fold) in DMSO and diluted further in water such that the final concentration of DMSO in the assay was 2%. HCV RdRp genotype 1b enzyme was used at a final concentration of 28 nM. A polyA template was used at 6 nM, and a biotinylated oligo-dT12 primer was used at 180 nM final concentration. Template was obtained commercially (Amersham 27-4110). Biotinylated primer was prepared by Sigma Genosys. 3H-UTP was used at 0.6 μCi (0.29 μM total UTP). Reactions were initiated by the addition of enzyme, incubated at 30° C. for 60 min, and stopped by adding 25 μl of 50 mM EDTA containing SPA beads (4 μg/μl, Amersham RPNQ 0007). Plates were read on a Packard TOPCOUNT® NXT after >1 hr incubation at room temperature.
A modified enzyme assay was performed essentially as described for the standard enzyme assay except for the following: The biotinylated oligo dT12 primer was precaptured on streptavidin-coated SPA beads by mixing primer and beads in assay buffer and incubating at room temperature for one hour. Unbound primer was removed after centrifugation. The primer-bound beads were resuspended in 20 mM Hepes buffer, pH 7.5 and used in the assay at final concentrations of 20 nM primer and 0.67 μg/μl beads. Order of addition in the assay: enzyme (14 nM) was added to diluted compound followed by the addition of a mixture of template (0.2 nM), 3H-UTP (0.6 μCi, 0.29 μM), and primer-bound beads, to initiate the reaction; concentrations given are final. Reactions were allowed to proceed for 4 hours at 30° C.
IC50 values for compounds were determined using seven different [I]. IC50 values were calculated from the inhibition using the formula y=A+((B−A)/(1+((C/x)^D))).

T1 sequence (Q9WMX2 2420-2992): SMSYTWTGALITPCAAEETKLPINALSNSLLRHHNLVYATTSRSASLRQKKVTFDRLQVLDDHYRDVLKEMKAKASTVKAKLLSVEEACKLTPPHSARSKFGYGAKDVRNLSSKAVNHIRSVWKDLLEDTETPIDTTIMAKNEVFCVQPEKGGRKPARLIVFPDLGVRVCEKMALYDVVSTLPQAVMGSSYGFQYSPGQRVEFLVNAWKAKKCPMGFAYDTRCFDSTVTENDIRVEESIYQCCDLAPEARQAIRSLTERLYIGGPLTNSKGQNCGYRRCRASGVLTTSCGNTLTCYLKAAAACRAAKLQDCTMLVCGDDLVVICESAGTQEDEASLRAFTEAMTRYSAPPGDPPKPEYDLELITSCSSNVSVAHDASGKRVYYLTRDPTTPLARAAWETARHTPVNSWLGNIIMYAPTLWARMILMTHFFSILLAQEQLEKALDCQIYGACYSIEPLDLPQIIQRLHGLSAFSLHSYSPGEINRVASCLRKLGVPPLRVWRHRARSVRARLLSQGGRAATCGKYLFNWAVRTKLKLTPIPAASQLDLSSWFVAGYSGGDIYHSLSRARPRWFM

| Structure (SMILES) | EC50 (HCV replicon; class symbol) [nM] | IC50 (HCV NS5B; class symbol) [nM] | EC50 (HCV replicon; exact value) [nM] | IC50 (HCV NS5B; exact value) [nM] |
| --- | --- | --- | --- | --- |
| CCN1C[C@H]2C[C@@H]1CN2C(=O)c1cnn(C2CCC2)c1C1=Cc2cc(OC)ccc2-c2c(C3CCCCC3)c3ccc(C(=O)NS(=O)(=O)C(C)C)cc3n2C1 | 1.7 to 500 | 1.7 to 500 | – | – |
| COc1ccc2c(c1)C=C(c1c(C(=O)N3CC4CCC(C3)O4)cnn1C1CCC1)Cn1c-2c(C2CCCCC2)c2ccc(C(=O)NS(=O)(=O)C(C)C)cc21 | 1.7 to 500 | 1.7 to 500 | 10 | 3.9 |
| COc1ccc2c(c1)C=C(c1c(C(=O)N3C[C@@H](C)O[C@@H](C)C3)cnn1-c1ccccc1)Cn1c-2c(C2CCCCC2)c2ccc(C(=O)NS(=O)(=O)C(C)C)cc21 | 1.7 to 500 | 1.7 to 500 | – | – |
| COc1ccc2c(c1)C=C(c1c(C(=O)N3C[C@@H]4C[C@H]3CN4C)c(C)nn1C1CCC1)Cn1c-2c(C2CCCCC2)c2ccc(C(=O)NS(=O)(=O)C(C)C)cc21 | 1.7 to 500 | 1.7 to 500 | – | – |
| COc1ccc2c(c1)C=C(c1c(C(=O)N3C[C@@H]4C[C@H]3CN4CC3CC3)cnn1C1CCC1)Cn1c-2c(C2CCCCC2)c2ccc(C(=O)NS(=O)(=O)C(C)C)cc21 | 1.7 to 500 | 1.7 to 500 | – | – |
| COc1ccc2c(c1)C=C(c1c(C(=O)N3C[C@@H](C)O[C@@H](C)C3)cnn1-c1ccnc(C)c1)Cn1c-2c(C2CCCCC2)c2ccc(C(=O)NS(=O)(=O)C(C)C)cc21 | 1.7 to 500 | 1.7 to 500 | – | – |
| COc1ccc2c(c1)C=C(c1c(C(=O)N3C4CCC3CN(C)C4)cnn1C1CCC1)Cn1c-2c(C2CCCCC2)c2ccc(C(=O)NS(=O)(=O)N(C)C)cc21 | 1.7 to 500 | 1.7 to 500 | – | – |
| COc1ccc2c(c1)C=C(c1c(C(=O)N3C4CCCC3COC4)c(C)nn1C1CCC1)Cn1c-2c(C2CCCCC2)c2ccc(C(=O)NS(=O)(=O)C(C)C)cc21 | 1.7 to 500 | 1.7 to 500 | – | – |
| COc1ccc2c(c1)C=C(c1c(C(=O)N3C[C@@H](C)N(C)[C@@H](C)C3)cnn1C1CCN(C)CC1)Cn1c-2c(C2CCCCC2)c2ccc(C(=O)NS(=O)(=O)C(C)C)cc21 | 1.7 to 500 | 1.7 to 500 | – | – |
| COc1ccc2c(c1)C=C(c1c(C(=O)N3CCOCC3)c(C)nn1C1CCC1)Cn1c-2c(C2CCCCC2)c2ccc(C(=O)NS(=O)(=O)C(C)C)cc21 | 1.7 to 500 | 1.7 to 500 | – | – |
| COc1ccc2c(c1)C=C(c1nn(C3CC3)cc1C(=O)N1CCOCC1)Cn1c-2c(C2CCCCC2)c2ccc(C(=O)NS(=O)(=O)C(C)C)cc21 | 1.7 to 500 | 1.7 to 500 | – | – |
| COc1ccc2c(c1)C=C(c1c(C(=O)N3C[C@@H]4C[C@H]3CN4)c(C)nn1C1CCC1)Cn1c-2c(C2CCCCC2)c2ccc(C(=O)NS(=O)(=O)C(C)C)cc21 | 1.7 to 500 | < 1.7 | – | – |
| COc1ccc2c(c1)C=C(c1c(C(=O)N3C4COCC3COC4)cnn1-c1ccncc1C)Cn1c-2c(C2CCCCC2)c2ccc(C(=O)NS(=O)(=O)C(C)C)cc21 | 1.7 to 500 | 1.7 to 500 | – | – |
| COc1ccc2c(c1)C=C(c1c(C(=O)N3CCC(F)(F)CC3)cnn1C1CCC1)Cn1c-2c(C2CCCCC2)c2ccc(C(=O)NS(=O)(=O)C(C)C)cc21 | 1.7 to 500 | 1.7 to 500 | – | – |
| COc1ccc2c(c1)C=C(c1c(C(=O)N3C[C@@H](C)O[C@@H](C)C3)cnn1-c1cnccn1)Cn1c-2c(C2CCCCC2)c2ccc(C(=O)NS(=O)(=O)C(C)C)cc21 | 1.7 to 500 | 1.7 to 500 | – | – |
| COc1ccc2c(c1)C=C(c1c(C(=O)N3C4CCC3CN(C)C4)cnn1C1CCOCC1)Cn1c-2c(C2CCCCC2)c2ccc(C(=O)NS(=O)(=O)C(C)C)cc21 | 1.7 to 500 | 1.7 to 500 | – | – |
| COc1ccc2c(c1)C=C(c1ncn(C3CCC3)c1C(=O)N1CCOCC1)Cn1c-2c(C2CCCCC2)c2ccc(C(=O)NS(=O)(=O)C(C)C)cc21 | 1.7 to 500 | 1.7 to 500 | 9 | 1.8 |
| CCN1CC2CC1CN2C(=O)c1c(C2=Cc3cc(OC)ccc3-c3c(C4CCCCC4)c4ccc(C(=O)NS(=O)(=O)C(C)C)cc4n3C2)ncn1C1CCC1 (centres unmarked) | 1.7 to 500 | 1.7 to 500 | – | – |
| COc1ccc2c(c1)C=C(c1c(C(=O)N3C4CCCC3COC4)cnn1-c1ccncc1C)Cn1c-2c(C2CCCCC2)c2ccc(C(=O)NS(=O)(=O)C(C)C)cc21 | 1.7 to 500 | 1.7 to 500 | 4 | 4.3 |
| COc1ccc2c(c1)C=C(c1c(C(=O)N3CC4CCC(C3)N4C)cnn1C1CCOCC1)Cn1c-2c(C2CCCCC2)c2ccc(C(=O)NS(=O)(=O)C(C)C)cc21 | 1.7 to 500 | 1.7 to 500 | – | – |
| COc1ccc2c(c1)C=C(c1c(C(=O)N3CCN(C4CCCC4)CC3)cnn1C1CCC1)Cn1c-2c(C2CCCCC2)c2ccc(C(=O)NS(=O)(=O)C(C)C)cc21 | 1.7 to 500 | 1.7 to 500 | – | – |
| COc1ccc2c(c1)C=C(c1c(C(=O)N3C4CCC3CC4)cnn1C1CCC1)Cn1c-2c(C2CCCCC2)c2ccc(C(=O)NS(=O)(=O)C(C)C)cc21 | 1.7 to 500 | 1.7 to 500 | – | – |

— patent US8133884B2, “Compounds for the treatment of hepatitis C” (priority 2008, dated 2012)
